Patent US20200325116A1, “SOLID FORMS OF A PLASMA KALLIKREIN INHIBITOR AND SALTS THEREOF” (KALVISTA PHARMACEUTICALS LIMITED, priority 2017, published 2020)
Each block holds one compound with its values, some of them ahead of it.

Columns and labels:
rats = conditions: systemic administration; cited from earlier work
[1] = In vitro permeability, Caco-2 model for oral absorption; assay type: in vitro ADME; conditions: human, Caco-2; 50 μM, apical to basolateral, 1 hour at 37° C.
Protocol: (§1) In vitro permeability was determined using the Caco-2 model for oral absorption. The methodology was adapted from standard published methods (Wang Z, Hop C. E., Leung K. H. and Pang J. (2000) J Mass Spectrom 35(1); 71-76). […] For the assay, 50 μM test compound is added to the apical side of the inserts and incubated for 1 hour at 37° C. on a shaking platform (120 rpm). Apical to basolateral transport was determined by measuring the test article in both compartments by LCMS following the 1 hour incubation. The integrity of the Caco-2 monolayers was confirmed by two methods, (i) comparison of pre- and post-experiment transepithelial electrical resistance (TEER) and, (ii) assessment of Lucifer Yellow flux.

Caco-2 monolayers = assay: as above; assay type: in vitro ADME
Protocol: as §1

[2] = Pharmacokinetics after a single oral dose in rats; assay type: in vivo; conditions: male, Sprague-Dawley, rat, 10% DMSO/10% cremophor/80% SWFI, plasma
Protocol: Pharmacokinetic studies of the compounds in Table 4 were performed to assess the pharmacokinetics following a single oral dose in male Sprague-Dawley rats. […] Following dosing, blood samples were collected over a period of […]. Sample times were 5, 15 and 30 minutes then 1, 2, 4, 6, 8 and 12 hours. Following collection, blood samples were centrifuged and the plasma fraction analysed for concentration of test compound by LCMS.

trypsin = assay: Enzyme selectivity, trypsin; assay type: biochemical, human; conditions: substrate at Km concentration
Protocol: Human serine protease enzymes plasmin, thrombin and trypsin were assayed for enzymatic activity using an appropriate fluorogenic substrate. Protease activity was measured by monitoring the accumulation of liberated fluorescence from the substrate over 5 minutes. The linear rate of fluorescence increase per minute was expressed as percentage (%) activity. The Km for the cleavage of each substrate was determined by standard transformation of the Michaelis-Menten equation.

Human Factor XIIa = molecular target: T1, Human Factor XIIa (Homo sapiens, UniProt P00748); assay: Determination of the IC50 for FXIIa; assay type: biochemical; conditions: 25° C., substrate H-DPro-Phe-Arg-AFC
T1 construct: purchased Enzyme Research Laboratories
T1 sequence (P00748 373-615 limits assumed, other chains not shown): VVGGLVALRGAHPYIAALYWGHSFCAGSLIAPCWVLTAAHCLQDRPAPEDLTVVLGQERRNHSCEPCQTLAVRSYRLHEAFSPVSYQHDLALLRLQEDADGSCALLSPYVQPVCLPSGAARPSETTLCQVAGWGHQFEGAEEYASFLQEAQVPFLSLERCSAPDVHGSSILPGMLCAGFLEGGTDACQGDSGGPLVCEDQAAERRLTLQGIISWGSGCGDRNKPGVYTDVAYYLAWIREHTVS
Protocol: Factor XIIa inhibitory activity in vitro was determined using standard published methods (see e.g. Shori et al., Biochem. Pharmacol., 1992, 43, 1209; Baeriswyl et al., ACS Chem. Biol., 2015, 10 (8) 1861; Bouckaert et al., European Journal of Medicinal Chemistry 110 (2016) 181). Human Factor XIIa (Enzyme Research Laboratories) was incubated at 25° C. with the fluorogenic substrate H-DPro-Phe-Arg-AFC and various concentrations of the test compound. Residual enzyme activity (initial rate of reaction) was determined by measuring the […] and the IC50 value for the test compound was determined.

Human KLK1 = molecular target: T2, Human KLK1 (Homo sapiens, UniProt P06870); assay: Determination of the IC50 for KLK1; assay type: biochemical; conditions: 25° C., substrate H-DVal-Leu-Arg-AFC
T2 construct: purchased Callbiochem
T2 sequence (P06870 25-262): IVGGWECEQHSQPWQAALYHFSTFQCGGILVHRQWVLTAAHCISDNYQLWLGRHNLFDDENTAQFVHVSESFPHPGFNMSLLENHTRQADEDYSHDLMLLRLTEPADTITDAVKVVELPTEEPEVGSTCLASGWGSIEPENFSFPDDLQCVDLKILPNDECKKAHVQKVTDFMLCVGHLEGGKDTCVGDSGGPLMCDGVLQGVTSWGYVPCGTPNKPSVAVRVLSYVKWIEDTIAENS
Protocol: KLK1 inhibitory activity in vitro was determined using standard published methods (see e.g. Johansen et al., Int. J. Tiss. Reac. 1986, 8, 185; Shori et al., Biochem. Pharmacol., 1992, 43, 1209; Stürzebecher et al., Biol. Chem. Hoppe-Seyler, 1992, 373, 1025). Human KLK1 (Callbiochem) was incubated at 25° C. with the fluorogenic substrate H-DVal-Leu-Arg-AFC and various concentrations of the test compound. Residual enzyme activity (initial rate of reaction) was determined by measuring the change in optical absorbance at 410 nm and the IC50 value for the test compound was determined.

Human FXIa = molecular target: T3, Human FXIa (Homo sapiens, UniProt P03951); assay: Determination of the % inhibition / IC50 for FXIa; assay type: biochemical; conditions: 25° C., substrate Z-Gly-Pro-Arg-AFC
T3 construct: purchased Enzyme Research Laboratories
T3 sequence (P03951 388-625 limits assumed): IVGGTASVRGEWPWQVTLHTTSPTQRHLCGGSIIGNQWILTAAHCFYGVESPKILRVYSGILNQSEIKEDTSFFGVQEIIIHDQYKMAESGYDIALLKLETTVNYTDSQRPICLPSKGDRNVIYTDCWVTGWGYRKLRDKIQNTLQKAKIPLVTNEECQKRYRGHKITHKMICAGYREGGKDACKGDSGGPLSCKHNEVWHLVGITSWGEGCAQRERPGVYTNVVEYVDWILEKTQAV
T3 sequence (P03951 19-387 partner limits assumed): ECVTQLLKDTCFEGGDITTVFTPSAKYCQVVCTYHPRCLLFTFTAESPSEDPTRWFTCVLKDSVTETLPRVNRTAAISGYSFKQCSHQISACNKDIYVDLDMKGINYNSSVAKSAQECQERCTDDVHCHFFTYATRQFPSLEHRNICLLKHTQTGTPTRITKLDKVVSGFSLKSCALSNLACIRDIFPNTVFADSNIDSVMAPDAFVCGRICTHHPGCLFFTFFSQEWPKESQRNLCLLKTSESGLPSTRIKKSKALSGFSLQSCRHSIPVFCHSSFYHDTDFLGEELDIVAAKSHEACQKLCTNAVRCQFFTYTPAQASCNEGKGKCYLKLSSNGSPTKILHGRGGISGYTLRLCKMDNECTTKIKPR
Protocol: Residual enzyme activity (initial rate of reaction) was determined by measuring the change in optical absorbance at 410 nm and the IC50 value for the test compound was determined.

[3] = system: LPS-induced disseminated intravascular coagulation; conditions: cited from earlier work
blood = conditions: contacting blood with the substance; cited from earlier work
[4] = system: intrinsic pathway of coagulation; conditions: in vitro; cited from earlier work
postoperative bleeding = conditions: in vivo; cited from earlier work

Compound: N=C(N)c1ccc(CNC(=O)c2cnn(Cc3ccccc3)c2)cc1 [ASP-440]
hematoma expansion (rats): reduced

Compound: COc1ccnc(CNC(=O)c2cn(Cc3ccc(Cn4ccccc4=O)cc3)nc2C(F)(F)F)c1F [Compound of Formula A, N-[(3-fluoro-4-methoxypyridin-2-yl)methyl]-1-({4-[(2-oxopyridin-1-yl)methyl]phenyl}methyl)-3-(trifluoromethyl)pyrazole-4-carboxamide]
Papp A→B at 1 h, 50 μM [1]: 17 ×10⁻⁶ cm/s
pharmacokinetic properties, in particular in vitro permeability (in words) (Caco-2 monolayers): surprisingly good
Cmax ([2]; po 2.2 mg/kg): 1800 ng/mL
Tmax ([2]; po 2.2 mg/kg): 0.5 h
IC50 (trypsin): > 40 µM

Cmax ([2]; po 10.5 mg/kg): 1530 ng/mL
Tmax ([2]; po 10.5 mg/kg): 3 h
IC50 (Human Factor XIIa): > 40 µM
IC50 (Human KLK1): > 40 µM
IC50 (Human FXIa): > 40 µM
Compound: COCc1nn(Cc2ccc(Cn3ccccc3=O)cc2)cc1C(=O)NCc1nccc(OC)c1F [Example 41 of WO2016/083820, N-[(3-fluoro-4-methoxypyridin-2-yl)methyl]-3-(methoxymethyl)-1-({4-[(2-oxopyridin-1-yl)methyl]phenyl}methyl)pyrazole-4-carboxamide]

Compound: Cl.NCC1CCC(C(=O)N[C@@H](Cc2ccccc2)C(=O)Nc2ccc(CC(=O)O)cc2)CC1 (stereo partly drawn) [PKSI-527]
decrease in platelet count and fibrinogen level, increase in FDP level [3]: significantly suppressed

Compound: Ecallantide
activated clotting time (ACT) (blood): increase
contact activated induced coagulation [4]: delay

Compound: aprotinin
postoperative bleeding (postoperative bleeding): decrease
